Experimental data reported in patent publication US20040014777A1, “Remedies for retinal nerve diseases containing 1,2-ethanediol derivatives or salts thereof” (Toyama Chemical Co., LTD., priority 2000, published 2004).

Legend:
[1] = tested on: neuron cell death caused by amyloid β-protein; conditions: Society for Neuroscience Abstracts Vol. 24, 1998; cited from earlier work
nerve growth factor = conditions: WO96/12717; cited from earlier work
retinal ganglion cells [2] = assay: Protective effect on retinal ganglion cells in a retinal ischemia-reperfusion rat model; format: in vivo, SD rats; conditions: fourteen days after retinal ischemia-reperfusion, n=8, control group 40%
Protocol: 2. Protective Effect on Retinal Ganglion Cells in a Retinal Ischemia-Reperfusion Rat Model
As a retinal ischemia-reperfusion model, the manner in Steven Roth et al. (Experimental Eye Research, Vol. 65, Pages 771-779, 1997) was used with partial modification.
As the test animals, SD rats (Japan SLC), 9 weeks old (body weight: about 300 g) were used. The operation was carried out under a halothane-anesthetized condition (introduction 5%, maintenance 2%). First, the animal was fixed on the table in a lateral decubitus, and the middle part of the skin between the external auditory canal and the external ocular angle was incised. After peeling off the temporal muscle from the cranium, the tissues surrounding the optic nerve were peeled off to expose the optic nerve. The retina central vessels were ligated together with the optic nerve with a 4-0 silk thread so as to avoid the damage of optic nerve. Thirty minutes after, the silk thread was released to reperfuse the blood flow. T-588 was orally administered 30 minutes before the ischemic treatment and just after the reperfusion. From the day next to the operation, T-588 was orally administered twice a day. […] The number of retinal ganglion cells was counted in the two region from the optic disk to 0.5 mm distant point and a ratio of the number of neurons in the ischemic eye to that in the normal eye was calculated on each individual. […]

retinal ganglion cells [3] = assay: Protective effect on retinal ganglion cells in a glaucoma model (India ink injection and angle photocoagulation); format: in vivo, Wistar white rats; conditions: T-588 100 mg/kg orally
Source text: 1. Protective Effect on Retinal Ganglion Cells in a Glaucoma Model
Wistar white rats [male, body weight 290-310 g] were subjected to a general anesthesia by intraperitoneal injection of ketamine hydrochloride and xylazine hydrochloride. Subsequently, the rats were subjected to an instillation anesthesia with oxybuprocaine hydrochloride. After the measuring both the intraocular pressures with a pneumatonometer (Model Classic 30:Mentor, Norwell, Mass., U.S.A.), the anterior chamber of the right eye was punctured with a 30-gage needle to aspirate the aqueous humor, and then about 30 μL of 35% India ink was injected thereinto. […]
Immediately after the coagulation, ophthalmoscopy was performed in all the animals in order to confirm the occlusion of retina central artery. Five days after the angle photocoagulation, the intraocular pressure was measured to confirm an elevation of the intraocular pressure in the right eye. […] From the fluorescent microscopic photographs, the number of labeled cell was counted by means of an image analyzer. The labeling rate of retinal ganglion cell was calculated as a ratio of the number of labeled ganglion cells in the right eye to the number of labeled ganglion cells in the control eye (left eye).
On the eighth day from the angle photocoagulation, the number of alive retinal ganglion cells was counted and compared with that of a normal eye. […]

CCN(CC)CCOC[C@H](O)c1ccc2sccc2c1.Cl [T-588, (R)-1-(benzo[b]thiophen-5-yl)-2-[2-(N,N-diethylamino)ethoxy]ethanol hydrochloride]
effect against neuron cell death caused by amyloid β-protein [1]: protective effects | effect on nerve growth factor activity (nerve growth factor): nerve growth factor activity-improving effect | survival rate of retinal ganglion cells (tested eye compared with normal eye) (retinal ganglion cells [2]; T-588 10 mg/kg orally twice a day): 57% | survival rate of retinal ganglion cells (tested eye compared with normal eye) (retinal ganglion cells [2]; T-588 30 mg/kg orally twice a day): 70% | survival rate of retinal ganglion cells (tested eye compared with normal eye) (retinal ganglion cells [3]; eighth day from angle photocoagulation, n=9, control group 78%): 91% | influence on the elevation of intraocular pressure (retinal ganglion cells [3]; glaucoma model rats): no influence
